Assay results from the supplement of paper PMC10307832.

Columns and labels:
Experiment in all cases: relative viability (nuclei count vs DMSO), 5 days (fraction); higher = more cells survive
[1] = compound: Cn1cc(-c2cnn3c(N)c(Br)c([C@@H]4CCCNC4)nc23)cn1 + C[C@]1(O)C[C@@H](c2nc(-c3ccc4ccc(-c5ccccc5)nc4c3)c3c(N)nccn32)C1 [Linsitinib] (partner 1 µM)
Summary of the method: (§1)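 Relative viability was taken as the ratio of nuclei in treated wells to nuclei in vehicle wells. Lung cancer cell lines in 1536-well plates received compounds by pin tool one day after seeding, either one drug alone or a fixed anchor-drug dose plus five library-drug doses (not always all listed) in √10 steps. Nuclei were counted on 4× images after 5 days of treatment, and values are medians of duplicate plates.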

[2] = compound: Cn1cc(-c2cnn3c(N)c(Br)c([C@@H]4CCCNC4)nc23)cn1 + CC1(C)CCC(c2ccc(Cl)cc2)=C(CN2CCN(c3ccc(C(=O)NS(=O)(=O)c4ccc(N[C@H](CCN5CCOCC5)CSc5ccccc5)c(S(=O)(=O)C(F)(F)F)c4)cc3)CC2)C1 [Navitoclax] (partner 0.5 µM)
Summary of the method: as §1

[3] = compound: Cn1cc(-c2cnn3c(N)c(Br)c([C@@H]4CCCNC4)nc23)cn1 + COc1cc2c(Oc3ccc(NC(=O)C4(C(=O)Nc5ccc(F)cc5)CC4)cc3F)ccnc2cc1OCCCN1CCOCC1 [Foretinib] (partner 0.25 µM)
Summary of the method: as §1

[4] = compound: Cn1cc(-c2cnn3c(N)c(Br)c([C@@H]4CCCNC4)nc23)cn1 + CCNC(=O)c1noc(-c2cc(C(C)C)c(O)cc2O)c1-c1ccc(CN2CCOCC2)cc1 [Luminespib] (partner 0.01 µM)
Summary of the method: as §1

| Cell Line | relative viability ([1]; first compound 0.05 µM) | relative viability ([1]; first compound 0.1581 µM) | relative viability ([1]; first compound 0.5 µM) | relative viability ([1]; first compound 1.581 µM) | relative viability ([1]; first compound 5 µM) | relative viability ([2]; first compound 0.05 µM) | relative viability ([2]; first compound 0.1581 µM) | relative viability ([2]; first compound 0.5 µM) | relative viability ([2]; first compound 1.581 µM) | relative viability ([2]; first compound 5 µM) | relative viability ([3]; first compound 0.1581 µM) | relative viability ([3]; first compound 0.5 µM) | relative viability ([3]; first compound 1.581 µM) | relative viability ([3]; first compound 5 µM) | relative viability ([3]; first compound 0.05 µM) | relative viability ([4]; first compound 0.05 µM) | relative viability ([4]; first compound 0.1581 µM) | relative viability ([4]; first compound 0.5 µM) | relative viability ([4]; first compound 1.581 µM) | relative viability ([4]; first compound 5 µM) |
| --- | --- | --- | --- | --- | --- | --- | --- | --- | --- | --- | --- | --- | --- | --- | --- | --- | --- | --- | --- | --- |
| HCC-78 | 0.507 | 0.519 | 0.524 | 0.604 | 0.385 | 0.851 | 0.794 | 0.796 | 0.737 | 0.56 | 0.666 | 0.561 | 0.535 | 0.576 | – | – | – | – | – | – |
| HCC-366 | 0.71 | 0.739 | 0.483 | 0.521 | 0.18 | 1.11 | 1.07 | 1.09 | 0.918 | 0.771 | 0.887 | 0.93 | 0.855 | 0.865 | 0.967 | – | – | – | – | – |
| HCC-827 | 0.934 | 0.958 | 0.947 | 1.05 | 0.953 | 1.03 | 1.04 | 1.04 | 1.01 | 0.99 | 1.11 | 1.06 | 1.02 | 1.02 | 1.09 | 0.551 | 0.843 | 0.485 | 0.674 | 0.332 |
| HOP-62 | 1.17 | 1.08 | 0.693 | 0.873 | 0.956 | 0.985 | 1.18 | 1.16 | 0.97 | 0.479 | 1.16 | 1.06 | 1 | 0.985 | 1.17 | 0.872 | 0.915 | 0.933 | 0.829 | 0.739 |
| IA-LM | 0.666 | 0.867 | 0.653 | 0.544 | 0.37 | 0.858 | 0.974 | 0.609 | 0.412 | 0.252 | 1.23 | 1.06 | 0.861 | 0.54 | 1.19 | – | – | – | – | – |
| LC-2-ad | 0.907 | 0.891 | 0.821 | 0.884 | 0.86 | 0.394 | 0.606 | 0.395 | 0.423 | 0.429 | 0.999 | 1.09 | 0.938 | 0.908 | 0.878 | 1.01 | 1.11 | 1.26 | 1.03 | 1.08 |
| LCLC-97TM1 | 0.194 | 0.2 | 0.184 | 0.21 | 0.176 | 0.462 | 0.439 | 0.325 | 0.343 | 0.46 | 1 | 0.93 | 0.909 | 0.956 | 0.862 | 0.874 | 0.844 | 0.743 | 0.654 | 0.777 |
| LCLC-103H | 0.978 | 1.18 | 1.15 | 1.06 | 0.915 | – | – | – | – | – | 0.848 | 0.746 | 0.674 | 0.657 | 0.72 | 1.05 | 1.02 | 0.895 | 0.699 | 0.816 |
| LK-2 | 0.548 | 0.446 | 0.51 | 0.369 | 0.317 | 0.915 | 0.711 | 0.699 | 0.627 | 0.555 | 1.27 | 0.887 | – | 0.901 | 1.18 | 0.213 | 0.206 | 0.182 | – | 0.169 |
